Assay results reported in ChEMBL document CHEMBL1201862, “PubChem BioAssay data set” (2004).
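Five compound concentrations were applied to cells in 96-well plates for 48 hours; endpoints were derived by simple linear interpolation of the resulting dose-response curve. GI50 marks 50% less growth.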 Calls of active or inactive are those of the source. Rule as the data show it: active = GI50 up to about 1.1 µM and inactive = higher.

Columns and labels:
Experiment in all cases: growth of human tumour cells (NCI), 48 h
OVCAR-4 = test system: OVCAR-4
SK-OV-3 = test system: SK-OV-3
SNB-75 = test system: SNB-75
SNB-19 = test system: SNB-19
SF-295 = test system: SF-295
HCT-15 = test system: HCT-15
SF-268 = test system: SF-268
NCI-H23 = test system: NCI-H23
HT-29 = test system: HT-29
OVCAR-3 = test system: OVCAR-3
HOP-92 = test system: HOP-92
NCI-H522 = test system: NCI-H522
SW-620 = test system: SW-620
MOLT-4 = test system: MOLT-4
TK-10 = test system: TK-10
U-251 = test system: U-251
SR = test system: SR

Measured: GI50

C=CCn1c2c(sc1=S)C(S)NC=N2 (configuration not stated)
inactive: OVCAR-4 > 100 µM | SK-OV-3 > 100 µM | SNB-75 > 100 µM | SNB-19 99.8 µM | SF-295 61.2 µM | SF-268 4.65 µM | NCI-H23 90.6 µM | HT-29 > 100 µM | OVCAR-3 94.2 µM | HOP-92 16.8 µM | NCI-H522 34.8 µM | SW-620 > 100 µM | MOLT-4 > 100 µM | TK-10 > 100 µM | U-251 32.6 µM | SR 91.8 µM
> 100 µM: HCT-15

C=C1C(=O)OC2/C=C(\C=O)CC/C=C(\C)C(O)C[C@@H]12 (some centres not stated)
inactive: OVCAR-4 14.1 µM | SK-OV-3 21.3 µM | SNB-75 15.1 µM | SNB-19 15.4 µM | SF-295 13.7 µM | SF-268 8.61 µM | NCI-H23 5.18 µM | HT-29 3.08 µM | OVCAR-3 9.46 µM | HOP-92 5.9 µM | NCI-H522 1.54 µM | SW-620 2.72 µM | MOLT-4 2.77 µM | TK-10 12.3 µM | U-251 18.8 µM | SR 2.8 µM
3.65 µM: HCT-15

COC(=O)c1oc([N+](=O)[O-])c(-c2ccccc2)c1-c1ccccc1
inactive: OVCAR-4 > 100 µM | SK-OV-3 > 100 µM | SNB-75 > 100 µM | SNB-19 > 100 µM | SF-295 > 100 µM | SF-268 > 100 µM | NCI-H23 > 100 µM | HT-29 88.3 µM | OVCAR-3 > 100 µM | HOP-92 > 100 µM | NCI-H522 > 100 µM | SW-620 > 100 µM | MOLT-4 33.6 µM | TK-10 > 100 µM | U-251 > 100 µM

CC(=O)Nc1ccc(C2C(C(=O)Nc3ccccc3)=C(C)NC(C)=C2C(=O)Nc2ccccc2)cc1
inactive: OVCAR-4 > 100 µM | SK-OV-3 > 100 µM | SNB-75 > 100 µM | SNB-19 > 100 µM | SF-295 > 100 µM | SF-268 > 100 µM | NCI-H23 > 100 µM | HT-29 > 100 µM | OVCAR-3 > 100 µM | HOP-92 > 100 µM | NCI-H522 64 µM | SW-620 98.4 µM | MOLT-4 > 100 µM | TK-10 > 100 µM | U-251 > 100 µM
> 64.1 µM: HCT-15

O=S1OC2(c3ccccc3-c3ccccc32)c2ccccc21 (configuration not stated)
86.3 µM: HCT-15
inactive: OVCAR-4 > 100 µM | SK-OV-3 > 100 µM | SNB-75 > 100 µM | SNB-19 > 100 µM | SF-295 > 100 µM | NCI-H23 > 100 µM | HT-29 > 100 µM | OVCAR-3 > 100 µM | NCI-H522 > 100 µM | SW-620 > 100 µM | MOLT-4 52.4 µM | TK-10 > 100 µM | U-251 > 100 µM | SR > 100 µM

N#Cc1c(N)c(C(=O)O)nn(-c2cccc(C(F)(F)F)c2)c1=O
95.1 µM: HCT-15
inactive: SK-OV-3 > 100 µM | SNB-75 14 µM | SNB-19 > 100 µM | SF-295 > 100 µM | SF-268 > 100 µM | NCI-H23 > 100 µM | HT-29 > 100 µM | OVCAR-3 > 100 µM | HOP-92 43.4 µM | NCI-H522 39 µM | SW-620 > 100 µM | MOLT-4 > 100 µM | TK-10 > 100 µM | U-251 > 100 µM | SR > 100 µM

FC(F)(F)C1(Br)C(c2ccccc2)=C1c1ccccc1
12.3 µM: HCT-15
inactive: OVCAR-4 18.8 µM | SK-OV-3 45.2 µM | SNB-75 29.1 µM | SNB-19 22.3 µM | SF-295 13 µM | SF-268 19.3 µM | NCI-H23 16.6 µM | HT-29 17.9 µM | OVCAR-3 15.7 µM | HOP-92 16.7 µM | SW-620 16.5 µM | MOLT-4 2.7 µM | TK-10 22.9 µM | U-251 15.6 µM | SR 5.11 µM

CCOC(=O)C(=O)Nc1c(CC)cccc1C(C)C
inactive: OVCAR-4 > 100 µM | SK-OV-3 > 100 µM | SNB-75 > 100 µM | SNB-19 > 100 µM | SF-295 > 100 µM | SF-268 > 100 µM | NCI-H23 > 100 µM | HT-29 > 100 µM | OVCAR-3 > 100 µM | HOP-92 > 100 µM | SW-620 > 100 µM | TK-10 > 100 µM | U-251 > 100 µM
active: SR 0.0151 µM
> 100 µM: HCT-15

Cc1cc(=O)oc2c(C)c(OCCCOc3ccc4c(C)cc(=O)oc4c3C)ccc12
> 100 µM: HCT-15
inactive: SK-OV-3 > 100 µM | SNB-19 > 100 µM | SF-295 > 100 µM | SF-268 > 100 µM | NCI-H23 > 100 µM | HT-29 > 100 µM | OVCAR-3 > 100 µM | HOP-92 65.9 µM | NCI-H522 > 100 µM | SW-620 > 100 µM | MOLT-4 > 100 µM | TK-10 > 100 µM | U-251 > 100 µM | SR > 100 µM
